# Patent US20120184536A1, “COMPOSITIONS COMPRISING SPECIFIC UGT INHIBITORS AND METHODS OF USE THEREOF” (The Board of Trustees of the University of Arkansas, priority 2009, published 2012)
# Read-outs that look alike come from different tables or passages of the source.
# T1: UGT1A10 (Homo sapiens, UniProt Q9HAW8)
# T1 sequence (Q9HAW8 26-530): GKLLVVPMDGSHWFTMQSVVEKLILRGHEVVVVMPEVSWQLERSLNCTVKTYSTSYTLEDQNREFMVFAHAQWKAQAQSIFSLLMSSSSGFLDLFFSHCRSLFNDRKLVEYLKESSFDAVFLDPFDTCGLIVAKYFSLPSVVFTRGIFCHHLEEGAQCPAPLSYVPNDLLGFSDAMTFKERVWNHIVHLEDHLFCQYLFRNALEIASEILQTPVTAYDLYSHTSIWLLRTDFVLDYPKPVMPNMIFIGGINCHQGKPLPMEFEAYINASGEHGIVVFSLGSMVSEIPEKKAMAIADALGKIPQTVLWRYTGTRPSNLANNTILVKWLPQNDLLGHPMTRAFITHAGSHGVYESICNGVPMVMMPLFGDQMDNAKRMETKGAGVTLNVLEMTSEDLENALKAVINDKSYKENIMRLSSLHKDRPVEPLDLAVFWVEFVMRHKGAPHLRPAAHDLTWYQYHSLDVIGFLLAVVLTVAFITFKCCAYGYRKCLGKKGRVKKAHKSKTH
# T2: UGT2B7 (Homo sapiens, UniProt P16662)
# T2 sequence (P16662 24-529): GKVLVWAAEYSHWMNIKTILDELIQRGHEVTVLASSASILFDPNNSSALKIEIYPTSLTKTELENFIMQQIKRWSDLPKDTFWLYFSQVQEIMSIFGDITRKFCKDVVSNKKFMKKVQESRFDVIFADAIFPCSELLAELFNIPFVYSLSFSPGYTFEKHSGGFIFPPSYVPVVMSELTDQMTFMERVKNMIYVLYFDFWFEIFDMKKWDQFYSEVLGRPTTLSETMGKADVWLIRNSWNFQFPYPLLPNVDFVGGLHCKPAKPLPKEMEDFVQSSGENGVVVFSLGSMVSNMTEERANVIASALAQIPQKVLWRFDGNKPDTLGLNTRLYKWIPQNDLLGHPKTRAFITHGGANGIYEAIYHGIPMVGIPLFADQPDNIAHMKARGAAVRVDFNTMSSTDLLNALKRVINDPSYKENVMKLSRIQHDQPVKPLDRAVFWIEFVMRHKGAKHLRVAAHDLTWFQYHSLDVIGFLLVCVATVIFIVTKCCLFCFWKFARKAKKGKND
# T3: UGT1A6 (Homo sapiens, UniProt P19224)
# T3 sequence (P19224 27-532): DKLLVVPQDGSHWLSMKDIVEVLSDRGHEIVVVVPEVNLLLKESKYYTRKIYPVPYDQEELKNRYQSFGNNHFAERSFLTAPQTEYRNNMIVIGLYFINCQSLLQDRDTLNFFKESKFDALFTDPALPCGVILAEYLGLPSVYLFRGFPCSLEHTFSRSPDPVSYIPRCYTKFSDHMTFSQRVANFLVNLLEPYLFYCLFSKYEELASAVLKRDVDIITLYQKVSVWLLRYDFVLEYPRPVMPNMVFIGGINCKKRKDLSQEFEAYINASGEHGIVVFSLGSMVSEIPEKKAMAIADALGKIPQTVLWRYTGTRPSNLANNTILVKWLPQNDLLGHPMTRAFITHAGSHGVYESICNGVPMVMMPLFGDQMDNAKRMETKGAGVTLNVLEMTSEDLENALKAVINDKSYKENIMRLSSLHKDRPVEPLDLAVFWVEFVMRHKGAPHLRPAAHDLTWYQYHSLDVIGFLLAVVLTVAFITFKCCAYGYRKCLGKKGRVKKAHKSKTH
# T4: UGT1A8 (Homo sapiens, UniProt Q9HAW9)
# T4 sequence (Q9HAW9 26-530): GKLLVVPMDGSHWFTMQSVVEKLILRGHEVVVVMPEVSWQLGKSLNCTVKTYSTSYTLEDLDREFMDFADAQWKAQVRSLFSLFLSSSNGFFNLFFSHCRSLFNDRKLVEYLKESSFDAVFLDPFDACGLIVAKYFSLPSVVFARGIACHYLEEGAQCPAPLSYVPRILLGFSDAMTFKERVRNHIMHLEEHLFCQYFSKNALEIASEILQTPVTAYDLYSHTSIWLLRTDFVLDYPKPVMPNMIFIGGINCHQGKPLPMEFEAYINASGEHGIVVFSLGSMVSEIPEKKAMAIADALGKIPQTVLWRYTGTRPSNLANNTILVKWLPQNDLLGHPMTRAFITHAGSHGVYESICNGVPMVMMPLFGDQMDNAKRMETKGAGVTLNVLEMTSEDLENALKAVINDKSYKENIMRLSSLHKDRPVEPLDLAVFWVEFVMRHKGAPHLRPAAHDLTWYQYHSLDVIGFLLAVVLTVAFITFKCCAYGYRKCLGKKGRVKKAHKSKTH
# Key:
# UGT1A10 [1] = molecular target: T1, UGT1A10; test: Ki assays / kinetics and inhibition type, UGT1A10 (Example 1); settings: read-out: Km (Substrate), Km of the aglycone substrate
# Description: (§5) Recombinant UGT Isoform Incubations—Recombinant human UGT2B7 was produced in HEK239 cells as previously described (6). UGT1A10 was produced as a His-tagged protein in baculovirus-infected Sf9 insect cells as previously described (7, 8). […] For inhibition assays, recombinant UGT membrane protein was incubated in reaction buffer with substrate, inhibitor, and co-substrate as previously described (6, 9).
# (§6) Ki assays—UGT2B7 or 1A10 were incubated with a range of at least four different concentrations of inhibitor using varying concentrations of substrate (Ki(substrate)) with a fixed saturating concentration of cosubstrate or with varying concentrations of co-substrate (Ki(UDP-GlcUA)) and a fixed saturating concentration of substrate (FIG. 4).
# (§7) The results of these experiments were analyzed and apparent kinetic and inhibition parameters were determined using Prism 4 software (GraphPad, San Diego, Calif.) and DynaFit (BioKin, Watertown, Mass.). TLC and HPLC Analysis—For inhibition assays using all substrates other than 7-OH-warfarin, aliquots (60 μl) of each incubation were analyzed using thin layer chromatography (TLC) as previously described (3). For inhibition assays using 7-OH-warfarin as a substrate, samples were analyzed using HPLC as described previously (10). Primary standards for the 7-OH-warfarin glucuronide were not available; therefore, product concentrations were estimated using the external standard response for the 7-OH-warfarin substrate.
# UGT1A10 [2] = molecular target: T1, UGT1A10; test: Ki assays / kinetics and inhibition type, UGT1A10 (Example 2)
# Description: Recombinant UGT Isoform Incubations—Recombinant human UGT1A10 and it mutants were produced in baculovirus-infected insect cells as previously described (6, 7). Synthesis of inhibitors was described previously (2). For inhibition assays, UGT recombinant membrane protein (5 μg) was incubated in reaction buffer ([…] Tris-HCl (pH 7.4)/5 mM MgCl2/5 mM saccharolactone) and 2% DMSO with substrate, inhibitor and co-substrate, UDP-GlcUA, in a total volume of 30 μl. Substrates were added in DMSO, and controls were run with each assay. No additional detergents or other activators were used in the incubations. Reactions were started by the addition of co-substrate and incubated at 37° C. (90 min for 8-hydroxywarfarin; 30 min for 4-MU; 30 min for E2). […] Reactions were stopped by addition of 40 μl of ethanol, and all incubations were performed in duplicate.
# TLC Analysis—For inhibition assays using 4-MU, E2, and 8-OH warfarin as substrates, aliquots (60 μl) of each sample were analyzed using thin layer chromatography (TLC) as described previously (3).
# Each sample was centrifuged at 14,000 rpm for 8 min to spin down the protein, and 60 μl of the supernatant was analyzed by HPLC as described previously (8).
# UGT2B7 [3] = molecular target: T2, UGT2B7; test: Screening assay, linoleic acid glucuronidation by UGT2B7; assay type: biochemical; design: made in house; host or cells: HEK239 cells (so in the source); settings: 250 μM linoleic acid; 0, 50 or 200 μM inhibitor; FIG. 2
# Description: (§1) FIG. 2 depicts the effect of PP inhibitors on the glucuronidation by UGT1A6, 1A8, 1A10, and 2B7. Each enzyme was incubated with 250 μM of 4-MU or linoleic acid and 0 μM (black), 50 μM (grey), or 200 μM (white) of each inhibitor. Activities are normalized to percent maximal activity.
# (§2) Synthesis of inhibitors was described previously (2).
# UGT1A6 [4] = molecular target: T3, UGT1A6; settings: cited from earlier work; for inhibition type toward UDP-GlcUA / inhibition type with 4-MU: 4-MU glucuronidation
# UGT1A6 [5] = molecular target: T3, UGT1A6; test: Screening assay, 4-MU glucuronidation by UGT1A6; assay type: biochemical; settings: 250 μM 4-MU; 0, 50 or 200 μM inhibitor; FIG. 2 / FIG. 10
# Description: as §1
# (§3) FIG. 10 depicts the effect of PP inhibitors on the glucuronidation of 4-MU by UGT1A6, 1A8, and 1A10. Each enzyme was incubated with 250 μM 4-MU and 0, 50, or 200 μM concentrations of each inhibitor. Activities are normalized to percent maximal activity.
# as §2
# (§4) Recombinant UGT Isoform Incubations—Recombinant human UGT1A10 and it mutants were produced in baculovirus-infected insect cells as previously described (6, 7). Synthesis of inhibitors was described previously (2). For inhibition assays, UGT recombinant membrane protein (5 μg) was incubated in reaction buffer ([…] Tris-HCl (pH 7.4)/5 mM MgCl2/5 mM saccharolactone) and 2% DMSO with substrate, inhibitor and co-substrate, UDP-GlcUA, in a total volume of 30 μl. Substrates were added in DMSO, and controls were run with each assay. No additional detergents or other activators were used in the incubations. Reactions were started by the addition of co-substrate and incubated at 37° C. (90 min for 8-hydroxywarfarin; 30 min for 4-MU; 30 min for E2). […]
# UGT1A8 = molecular target: T4, UGT1A8; test: Screening assay, 4-MU glucuronidation by UGT1A8; assay type: biochemical; settings: 250 μM 4-MU; 0, 50 or 200 μM inhibitor; FIG. 2 / FIG. 10
# Description: as §1, §3, §2, §4
# UGT1A10 [6] = molecular target: T1, UGT1A10; test: Screening assay, 4-MU glucuronidation by UGT1A10; assay type: biochemical; design: His; made in house; host or cells: baculovirus-infected Sf9 insect cells; settings: 250 μM 4-MU; 0, 50 or 200 μM inhibitor; FIG. 2 / FIG. 10
# Description: as §1, §3, §2, §4
# UGT2B7 [7] = molecular target: T2, UGT2B7; test: Ki assays / kinetics and inhibition type, UGT2B7 (Example 1); settings: human
# Description: as §5, §6, §7
# UGT2B7 [8] = molecular target: T2, UGT2B7
# Description: (§8) Recombinant UGT Isoform Incubations—Recombinant human UGT2B7 was produced in HEK239 cells as previously described (6). […] For inhibition assays, recombinant UGT membrane protein was incubated in reaction buffer with substrate, inhibitor, and co-substrate as previously described (6, 9).
# (§9) IC50 assays—UGT2B7 or 1A10 were incubated with fixed concentrations of each substrate and co-substrate and increasing concentrations of inhibitor.
# as §7
# UGT2B7 [9] = molecular target: T2, UGT2B7; test: IC50 assays, inhibition of UGT2B7 glucuronidation (Example 1); settings: read-out: IC50 (Substrate), linoleic acid ~2 x Km, co-substrate in >5 fold excess
# Description: as §8, §9, §7
# [10] = substrate: O=[N+]([O-])c1ccc(O)cc1; test: purified protein, by the assay type; settings: other: UGT2B7; Km of the aglycone substrate
# Description: as §5, §6, §7
# [11] = substrate: C[C@]12CC[C@@H](O)C[C@@H]1CC[C@@H]1[C@@H]2CC[C@]2(C)C(=O)CC[C@@H]12; test: purified protein, by the assay type; settings: other: UGT2B7; Km of the aglycone substrate
# [12] = read-out: Km (Substrate), UGT1A10, Km of the aglycone substrate, Example 2
molecule,measurement,setting,value
"CC(=O)CC(c1ccccc1)c1c(O)c2ccc(O)cc2oc1=O (stereo not drawn) [7-OH Warfarin, 7-hydroxywarfarin, reference compound]",Km,UGT1A10 [1],450 ± 40 µM
same,Km,UGT1A10 [2]; [12],497 ± 61 µM
"Cc1cc(=O)oc2cc(O)ccc12 [4-MU, 4-methylumbelliferone, reference compound]",Km,UGT1A10 [1],200 ± 20 µM
same,Km,UGT1A10 [2]; [12],91.1 ± 19 µM
"CC(=O)CC(c1ccccc1)c1c(O)c2cccc(O)c2oc1=O (stereo not drawn) [8-OH Warfarin, 8-hydroxywarfarin, reference compound]",Km,UGT1A10 [1],510 ± 70 µM
same,Km,UGT1A10 [2]; [12],515 ± 17 µM
CCCCCCCCCC(=O)NC(COC(=O)NS(=O)(=O)OCC1OC(n2ccc(=O)[nH]c2=O)C2OC(C)(C)OC12)C(O)c1ccccc1 (stereo not drawn) [PP37P],effect on glucuronidation of linoleic acid by UGT2B7,UGT2B7 [3],least effect
same,inhibition type toward UDP-GlcUA,UGT1A6 [4],competitive
same,inhibition type with 4-MU,UGT1A6 [4],competitive
same,inhibition of 4-methylumbelliferone (4-MU) glucuronidation,UGT1A6 [4],identified as inhibitors
same,effect on glucuronidation of 4-MU by UGT1A6,UGT1A6 [5],least effect
same,effect on glucuronidation of 4-MU by UGT1A8,UGT1A8,least effect
same,effect on glucuronidation of 4-MU by UGT1A10,UGT1A10 [6],least effect
CCCCCCCCCC(=O)NC(COC(=O)NS(=O)(=O)OCC1OC(n2ccc(=O)[nH]c2=O)C(O)C1O)C(O)c1ccccc1 (stereo not drawn) [PP37],inhibition type toward UDP-GlcUA,UGT1A6 [4],competitive
same,inhibition type with 4-MU,UGT1A6 [4],competitive
same,inhibition of 4-methylumbelliferone (4-MU) glucuronidation,UGT1A6 [4],identified as inhibitors
"CCCCC/C=C\C/C=C\CCCCCCCC(=O)O [Linoleic Acid, reference compound]",Km,UGT2B7 [7],160 ± 20 µM
"C[C@]12CC[C@@H]3c4ccc(O)cc4CC[C@H]3[C@@H]1CC[C@@H]2O [E2, reference compound]",Km,UGT1A10 [1],46 ± 5 µM
same,Km,UGT1A10 [2],48.3 ± 9 µM
CCCCCCCCCC(=O)NC(COC(=O)NS(=O)(=O)OCC1OC(n2ccc(=O)[nH]c2=O)C2OC(C)(C)OC12)Cc1ccccc1 (stereo not drawn) [PP50B],inhibition type toward UDP-GlcUA,UGT1A6 [4],competitive
same,inhibition type with 4-MU,UGT1A6 [4],non-competitive
same,inhibition of 4-methylumbelliferone (4-MU) glucuronidation,UGT1A6 [4],identified as inhibitors
CCCCCCCCCC(=O)NC(COC(=O)NCC(=O)NCC1OC(n2ccc(=O)[nH]c2=O)C(O)C1O)C(O)c1ccccc1 (stereo not drawn) [PP36],IC50,UGT2B7 [8],210 µM
same,effect on glucuronidation of linoleic acid by UGT2B7,UGT2B7 [3],least effect
same,effect on glucuronidation of 4-MU by UGT1A6,UGT1A6 [5],least effect
same,effect on glucuronidation of 4-MU by UGT1A8,UGT1A8,least effect
same,effect on glucuronidation of 4-MU by UGT1A10,UGT1A10 [6],least effect
same,IC50,UGT2B7 [9],740 µM
CCCCCCCCCC(=O)NC(COC(=O)CS(=O)(=O)OCC1OC(n2ccc(=O)[nH]c2=O)C(O)C1O)Cc1ccccc1 (stereo not drawn) [PP56B],inhibition type toward UDP-GlcUA,UGT1A6 [4],competitive
same,inhibition type with 4-MU,UGT1A6 [4],competitive
same,inhibition of 4-methylumbelliferone (4-MU) glucuronidation,UGT1A6 [4],identified as inhibitors
UGT2B7 (Homo sapiens) (protein) GKVLVWAAEYSHWMNIKTILDELIQRGHEVTVLASSASILFDPNNSSALKIEIYPTSLTKTELENFIMQQIKRWSDLPKDTFWLYFSQVQEIMSIFGDITRKFCKDVVSNKKFMKKVQESRFDVIFADAIFPCSELLAELFNIPFVYSLSFSPGYTFEKHSGGFIFPPSYVPVVMSELTDQMTFMERVKNMIYVLYFDFWFEIFDMKKWDQFYSEVLGRPTTLSETMGKADVWLIRNSWNFQFPYPLLPNVDFVGGLHCKPAKPLPKEMEDFVQSSGENGVVVFSLGSMVSNMTEERANVIASALAQIPQKVLWRFDGNKPDTLGLNTRLYKWIPQNDLLGHPKTRAFITHGGANGIYEAIYHGIPMVGIPLFADQPDNIAHMKARGAAVRVDFNTMSSTDLLNALKRVINDPSYKENVMKLSRIQHDQPVKPLDRAVFWIEFVMRHKGAKHLRVAAHDLTWFQYHSLDVIGFLLVCVATVIFIVTKCCLFCFWKFARKAKKGKND,Km,[10],760 ± 130 µM
same,Km,[11],22 ± 2 µM
